Patent US20060069132A1, “Azolecarboxamide herbicides” (priority 2004, published 2006)

Experiments:
[1] = system: barnyardgrass; assay: Test B pre-/postemergence herbicide test; format: in vivo, Echinochloa crus-galli
Outline: (§1)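 Visual rating, 0 (no effect) to 100 (complete control), versus untreated controls after 13–15 d in greenhouse. Pre- and postemergence applications (postemergence plants 2–18 cm, 1–4 leaves); flooded paddy arm at 2-leaf stage. Compounds in non-phytotoxic solvent plus surfactant.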

[2] = system: Surinam grass; assay: Test B pre-/postemergence herbicide test; format: in vivo, Urochloa decumbens; conditions: for Surinam Grass plant response rating: postemergence, visual rating
Outline: (§2)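 Plants compared with untreated controls 13–15 days post-treatment and given a visual 0–100 injury score. Applications: preemergence to seeds; postemergence at 1- to 4-leaf (2–18 cm); paddy species flooded, 2-leaf stage. Vehicle non-phytotoxic, surfactant included.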

[3] = system: cocklebur; assay: Test B pre-/postemergence herbicide test; format: in vivo, Xanthium strumarium
Outline: as §1

[4] = system: corn; assay: Test B pre-/postemergence herbicide test; format: in vivo, Zea mays
Outline: as §2

[5] = system: large crabgrass; assay: Test B pre-/postemergence herbicide test; format: in vivo, Digitaria sanguinalis
Outline: as §2

[6] = system: giant foxtail; assay: Test B pre-/postemergence herbicide test; format: in vivo, Setaria faberi
Outline: as §2

[7] = system: lambsquarters; assay: Test B pre-/postemergence herbicide test; format: in vivo, Chenopodium album; conditions: for Lambsquarters plant response rating: postemergence, visual rating
Outline: as §2

[8] = system: morningglory; assay: Test B pre-/postemergence herbicide test; format: in vivo, Ipomoea coccinea; conditions: for Morningglory plant response rating: postemergence, visual rating
Outline: as §1

[9] = system: pigweed; assay: Test B pre-/postemergence herbicide test; format: in vivo, Amaranthus retroflexus; conditions: for Pigweed plant response rating: postemergence, visual rating
Outline: as §2

[10] = system: rice; assay: Test B pre-/postemergence herbicide test; format: in vivo, Oryza sativa; conditions: preemergence
Outline: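 Greenhouse pot assay with simultaneous preemergence (treated seed) and postemergence (2–18 cm seedlings) applications of surfactant-containing, non-phytotoxic solvent formulations. Response scored visually 13–15 days later on a 0–100 scale, 100 meaning complete control.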

[11] = system: velvetleaf; assay: Test B pre-/postemergence herbicide test; format: in vivo, Abutilon theophrasti; conditions: for Velvetleaf plant response rating: postemergence, visual rating
Outline: as §2

[12] = system: blackgrass; assay: Test B postemergence herbicide test; format: in vivo, Alopecurus myosuroides; conditions: scale 0 (no effect) to 100 (complete control); for Plant response rating, Blackgrass: Postemergence, 500 g ai/ha, visual rating after 13 to 15 days; for Blackgrass plant response rating: postemergence, 125 g ai/ha, visual rating
Outline: (§3)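 Visual ratings, 0 (no effect) to 100 (complete control), made versus controls after 13–15 d greenhouse. Paddy plants treated at 2-leaf stage; postemergence plants at 1- to 4-leaf stage, 2–18 cm tall.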

[13] = system: wheat; assay: Test B postemergence herbicide test; format: in vivo, Triticum aestivum; design: key to Wheat plant response rating: 0 = no effect, 100 = complete control; conditions: scale 0 (no effect) to 100 (complete control); for Plant response rating, Wheat: Postemergence, 500 g ai/ha, visual rating after 13 to 15 days; for Wheat plant response rating: postemergence, 125 g ai/ha, visual rating
Outline: (§4)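 After treating 2-leaf paddy plants or 2–18 cm postemergence plants (1 to 4 leaves) with formulated chemical, researchers kept them in a greenhouse for 13–15 days. Effects were judged visually versus controls: 0 indicates none, 100 total control.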

[14] = system: wild oat; assay: Test B postemergence herbicide test; format: in vivo, Avena fatua; conditions: scale 0 (no effect) to 100 (complete control); for Plant response rating, Oat, Wild: Postemergence, 500 g ai/ha, visual rating after 13 to 15 days; for Oat, Wild plant response rating: postemergence, 125 g ai/ha, visual rating
Outline: as §4

[15] = system: rice; assay: Test B flooded paddy test; format: in vivo, Oryza sativa; conditions: 1000 g ai/ha, visual rating, scale 0 to 100 (0 no effect, 100 complete control), 13 to 15 days
Outline: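 Formulated test chemicals went onto postemergence plants measuring 2 to 18 cm, at one to four leaves. For the paddy assay, species had reached two leaves. Scoring took place 13–15 days later by eye, relative to untreated plants, using 0 for no effect up to 100 for full control.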

[16] = system: small flower umbrella sedge; assay: Test B flooded paddy test; format: in vivo, Cyperus difformis; conditions: 1000 g ai/ha, visual rating, scale 0 to 100 (0 no effect, 100 complete control), 13 to 15 days
Outline: as §3

[17] = system: ducksalad; assay: Test B flooded paddy test; format: in vivo, Heteranthera limosa; conditions: 1000 g ai/ha, visual rating, scale 0 to 100 (0 no effect, 100 complete control), 13 to 15 days
Outline: as §3

[18] = system: barnyardgrass; assay: Test B flooded paddy test; format: in vivo, Echinochloa crus-galli; conditions: 1000 g ai/ha, visual rating, scale 0 to 100 (0 no effect, 100 complete control), 13 to 15 days
Outline: as §3

[19] = system: rice; assay: Test C flooded paddy test; format: in vivo, Oryza sativa; conditions: for Plant response rating, Rice: 500 g ai/ha, visual rating after 12 to 14 days
Outline: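 Postemergence sprays applied to plants 2 to 18 cm tall (1- to 4-leaf stage); paddy species grown to 2-leaf stage under flooding. After 12 to 14 days in greenhouse, visual rating versus untreated controls on 0–100 scale (0 no effect, 100 complete control).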

[20] = system: smallflower umbrella sedge; assay: Test C flooded paddy test; format: in vivo, Cyperus difformis; conditions: for Plant response rating, Sedge, Umbrella: 500 g ai/ha, visual rating after 12 to 14 days
[21] = system: ducksalad; assay: Test C flooded paddy test; format: in vivo, Heteranthera limosa; conditions: for Plant response rating, Ducksalad: 500 g ai/ha, visual rating after 12 to 14 days
[22] = system: barnyardgrass; assay: Test C flooded paddy test; format: in vivo, Echinochloa crus-galli; conditions: for Plant response rating, Barnyardgrass: 500 g ai/ha, visual rating after 12 to 14 days
Outline: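 Weeds and wheat were sprayed after emergence, at a height of 2 to 18 cm (1–4 leaves), and paddy barnyardgrass was flooded and treated at two leaves. Assessment took place 12–14 days later in the greenhouse on a 0-to-100 visual control scale. A dash means no result was obtained.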

[23] = Postemergence, 500 g ai/ha, visual rating after 13 to 15 days, scale 0 (no effect) to 100 (complete control)
[24] = Preemergence, 500 g ai/ha, scale 0 to 100
[25] = postemergence, 125 g ai/ha, visual rating, scale 0 (no effect) to 100 (complete control)
[26] = preemergence, 125 g ai/ha, 0 to 100 scale, 0 is no effect, 100 is complete control
[27] = 125 g ai/ha, scale 0 (no effect) to 100 (complete control)
[28] = 125 g ai/ha, 0 to 100 scale, 0 is no effect, 100 is complete control
[29] = 62 g ai/ha, scale 0 to 100 (0 no effect, 100 complete control)
[30] = 125 g ai/ha, scale of 0 to 100, 0 is no effect, 100 is complete control
[31] = 250 g ai/ha, scale of 0 to 100, 0 is no effect, 100 is complete control
[32] = scale 0 to 100 (0 no effect, 100 complete control)
[33] = 500 g ai/ha, visual rating 0-100, 0 no effect, 100 complete control, preemergence

CCOC(=O)c1cc(NC(=O)c2cc(C(C)(C)C)nn2CC)c(F)cc1OC [Compound 76]
Plant response rating, Barnyardgrass [1, 23]: 20
Barnyardgrass plant response rating [1, 24]: 100
Barnyardgrass plant response rating [1, 25]: 10
Plant response rating, Barnyardgrass [1, 26]: 80
Plant response rating, Surinam Grass [2, 23]: 20
Surinam Grass plant response rating [2, 27]: 20
Plant response rating, Surinam Grass [2, 26]: 70
Plant response rating, Cocklebur [3, 23]: 90
Cocklebur plant response rating [3, 24]: 40
Cocklebur plant response rating [3, 25]: 40
Plant response rating, Corn [4, 23]: 30
Corn plant response rating [4, 24]: 50
Corn plant response rating [4, 25]: 10
Plant response rating, Corn [4, 26]: 30
Plant response rating, Crabgrass, Large [5, 23]: 20
Crabgrass, Large plant response rating [5, 24]: 90
Crabgrass, Large plant response rating [5, 25]: 10
Plant response rating, Crabgrass, Large [5, 26]: 80
Plant response rating, Foxtail, Giant [6, 23]: 40
Foxtail, Giant plant response rating [6, 24]: 100
Foxtail, Giant plant response rating [6, 25]: 20
Plant response rating, Foxtail, Giant [6, 26]: 90
Plant response rating, Lambsquarters [7, 23]: 60
Lambsquarters plant response rating [7, 27]: 30
Plant response rating, Lambsquarters [7, 26]: 50
Plant response rating, Morningglory [8, 23]: 10
Morningglory plant response rating [8, 27]: 10
Plant response rating, Morningglory [8, 26]: 10
Plant response rating, Pigweed [9, 23]: 100
Pigweed plant response rating [9, 27]: 100
Plant response rating, Pigweed [9, 26]: 100
Plant response rating, Rice [10, 28]: 50
Plant response rating, Velvetleaf [11, 23]: 40
Velvetleaf plant response rating [11, 27]: 40
Plant response rating, Velvetleaf [11, 26]: 30
Plant response rating, Blackgrass [12]: 50
Blackgrass plant response rating [12]: 10
Plant response rating, Wheat [13]: 30
Wheat plant response rating [13]: 20
Plant response rating, Oat, Wild [14]: 40
Oat, Wild plant response rating [14]: 30
Rice plant response rating [15]: 60
Sedge, Umbrella plant response rating [16]: 60
Ducksalad plant response rating [17]: 100
Barnyardgrass plant response rating [18]: 70
Rice plant response rating [19, 29]: 75
Rice plant response rating [19, 30]: 80
Rice plant response rating [19, 31]: 85
Plant response rating, Rice [19, 32]: 90
Sedge, Umbrella plant response rating [20, 29]: 80
Sedge, Umbrella plant response rating [20, 30]: 85
Sedge, Umbrella plant response rating [20, 31]: 85
Plant response rating, Sedge, Umbrella [20, 32]: 90
Ducksalad plant response rating [21, 29]: 45
Ducksalad plant response rating [21, 30]: 50
Ducksalad plant response rating [21, 31]: 75
Plant response rating, Ducksalad [21, 32]: 80
Barnyardgrass plant response rating [22, 29]: 50
Barnyardgrass plant response rating [22, 30]: 70
Barnyardgrass plant response rating [22, 31]: 80
Plant response rating, Barnyardgrass [22, 32]: 90

CCn1nc(C(C)(C)C)cc1C(=O)Nc1ccc(OC)c(C(=O)OC(C)C)c1 [Compound 101]
Plant response rating, Barnyardgrass [1, 33]: 70
Plant response rating, Barnyardgrass [1, 23]: 20
Barnyardgrass plant response rating [1, 25]: 10
Plant response rating, Barnyardgrass [1, 26]: 40
Plant response rating, Surinam Grass [2, 33]: 30
Plant response rating, Surinam Grass [2, 23]: 20
Surinam Grass plant response rating [2, 27]: 10
Plant response rating, Surinam Grass [2, 26]: 10
Plant response rating, Cocklebur [3, 33]: 90
Plant response rating, Cocklebur [3, 23]: 80
Cocklebur plant response rating [3, 25]: 20
Plant response rating, Cocklebur [3, 26]: 0
Plant response rating, Corn [4, 33]: 40
Plant response rating, Corn [4, 23]: 40
Corn plant response rating [4, 25]: 10
Plant response rating, Corn [4, 26]: 20
Plant response rating, Crabgrass, Large [5, 33]: 90
Plant response rating, Crabgrass, Large [5, 23]: 20
Crabgrass, Large plant response rating [5, 25]: 10
Plant response rating, Crabgrass, Large [5, 26]: 50
Plant response rating, Foxtail, Giant [6, 33]: 60
Plant response rating, Foxtail, Giant [6, 23]: 30
Foxtail, Giant plant response rating [6, 25]: 20
Plant response rating, Foxtail, Giant [6, 26]: 20
Plant response rating, Lambsquarters [7, 33]: 100
Plant response rating, Lambsquarters [7, 23]: 90
Lambsquarters plant response rating [7, 27]: 80
Plant response rating, Lambsquarters [7, 26]: 100
Plant response rating, Morningglory [8, 33]: 10
Plant response rating, Morningglory [8, 23]: 10
Morningglory plant response rating [8, 27]: 10
Plant response rating, Morningglory [8, 26]: 10
Plant response rating, Pigweed [9, 33]: 100
Plant response rating, Pigweed [9, 23]: 90
Pigweed plant response rating [9, 27]: 80
Plant response rating, Pigweed [9, 26]: 100
Plant response rating, Rice ([10]; 500 g ai/ha, visual rating 0-100, 0 no effect, 100 complete control): 40
Plant response rating, Rice [10, 28]: 30
Plant response rating, Velvetleaf [11, 33]: 50
Plant response rating, Velvetleaf [11, 23]: 30
Velvetleaf plant response rating [11, 27]: 20
Plant response rating, Velvetleaf [11, 26]: 20
Plant response rating, Blackgrass [12]: 40
Blackgrass plant response rating [12]: 20
Plant response rating, Wheat [13]: 20
Wheat plant response rating [13]: 10
Plant response rating, Oat, Wild [14]: 50
Oat, Wild plant response rating [14]: 30
Rice plant response rating [15]: 80
Sedge, Umbrella plant response rating [16]: 80
Ducksalad plant response rating [17]: 90
Barnyardgrass plant response rating [18]: 70
Rice plant response rating [19, 29]: 0
Rice plant response rating [19, 30]: 0
Rice plant response rating [19, 31]: 0
Plant response rating, Rice [19, 32]: 25
Sedge, Umbrella plant response rating [20, 29]: 20
Sedge, Umbrella plant response rating [20, 30]: 75
Sedge, Umbrella plant response rating [20, 31]: 80
Plant response rating, Sedge, Umbrella [20, 32]: 90
Ducksalad plant response rating [21, 29]: 0
Ducksalad plant response rating [21, 30]: 0
Ducksalad plant response rating [21, 31]: 40
Plant response rating, Ducksalad [21, 32]: 75
Barnyardgrass plant response rating [22, 29]: 0
Barnyardgrass plant response rating [22, 30]: 20
Barnyardgrass plant response rating [22, 31]: 30
Plant response rating, Barnyardgrass [22, 32]: 50
